ChEMBL document CHEMBL2417435, “The discovery of potent blockers of the canonical transient receptor channels, TRPC3 and TRPC6, based on an anilino-thiazole pharmacophore” (Bioorg Med Chem Lett, 2013)

How the values were obtained:
[1] = molecular target: T1, Short transient receptor potential channel 6 (Homo sapiens, UniProt Q9Y210); assay: Inhibition of human recombinant TRPC6 expressed in HEK293-MSRII cells assessed as carbachol-stimulated Ca2+/Na+ influx after 10 mins by FLIPR assay; format: cell-based
T1 sequence (Q9Y210 whole entry): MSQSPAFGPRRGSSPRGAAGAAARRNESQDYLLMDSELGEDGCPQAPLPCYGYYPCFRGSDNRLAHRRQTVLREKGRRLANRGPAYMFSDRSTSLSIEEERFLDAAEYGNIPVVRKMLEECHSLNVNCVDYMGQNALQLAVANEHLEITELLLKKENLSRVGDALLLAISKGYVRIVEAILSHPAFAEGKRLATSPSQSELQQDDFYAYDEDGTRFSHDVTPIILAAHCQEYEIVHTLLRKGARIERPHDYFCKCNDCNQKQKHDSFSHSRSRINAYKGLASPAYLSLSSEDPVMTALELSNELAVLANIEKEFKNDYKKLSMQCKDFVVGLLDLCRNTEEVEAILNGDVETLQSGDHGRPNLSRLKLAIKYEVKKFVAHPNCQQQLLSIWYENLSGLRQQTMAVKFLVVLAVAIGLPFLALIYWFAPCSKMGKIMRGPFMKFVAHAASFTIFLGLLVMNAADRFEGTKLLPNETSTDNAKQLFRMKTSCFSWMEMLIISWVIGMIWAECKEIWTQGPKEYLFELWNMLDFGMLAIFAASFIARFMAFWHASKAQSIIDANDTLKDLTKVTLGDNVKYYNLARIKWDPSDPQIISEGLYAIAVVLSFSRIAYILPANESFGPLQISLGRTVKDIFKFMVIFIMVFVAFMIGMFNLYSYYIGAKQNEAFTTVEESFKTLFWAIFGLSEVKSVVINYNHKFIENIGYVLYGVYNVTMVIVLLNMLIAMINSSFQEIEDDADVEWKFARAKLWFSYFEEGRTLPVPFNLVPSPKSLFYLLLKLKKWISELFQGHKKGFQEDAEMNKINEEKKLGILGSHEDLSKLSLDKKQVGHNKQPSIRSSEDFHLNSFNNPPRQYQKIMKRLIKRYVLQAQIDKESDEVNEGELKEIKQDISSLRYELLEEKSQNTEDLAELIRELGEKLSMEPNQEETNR

[2] = molecular target: T2, Short transient receptor potential channel 3 (Homo sapiens, UniProt Q13507); assay: Inhibition of human recombinant TRPC3 expressed in HEK293-MSRII cells assessed as carbachol-stimulated Ca2+/Na+ influx after 10 mins by FLIPR assay; format: cell-based
T2 sequence (Q13507 whole entry): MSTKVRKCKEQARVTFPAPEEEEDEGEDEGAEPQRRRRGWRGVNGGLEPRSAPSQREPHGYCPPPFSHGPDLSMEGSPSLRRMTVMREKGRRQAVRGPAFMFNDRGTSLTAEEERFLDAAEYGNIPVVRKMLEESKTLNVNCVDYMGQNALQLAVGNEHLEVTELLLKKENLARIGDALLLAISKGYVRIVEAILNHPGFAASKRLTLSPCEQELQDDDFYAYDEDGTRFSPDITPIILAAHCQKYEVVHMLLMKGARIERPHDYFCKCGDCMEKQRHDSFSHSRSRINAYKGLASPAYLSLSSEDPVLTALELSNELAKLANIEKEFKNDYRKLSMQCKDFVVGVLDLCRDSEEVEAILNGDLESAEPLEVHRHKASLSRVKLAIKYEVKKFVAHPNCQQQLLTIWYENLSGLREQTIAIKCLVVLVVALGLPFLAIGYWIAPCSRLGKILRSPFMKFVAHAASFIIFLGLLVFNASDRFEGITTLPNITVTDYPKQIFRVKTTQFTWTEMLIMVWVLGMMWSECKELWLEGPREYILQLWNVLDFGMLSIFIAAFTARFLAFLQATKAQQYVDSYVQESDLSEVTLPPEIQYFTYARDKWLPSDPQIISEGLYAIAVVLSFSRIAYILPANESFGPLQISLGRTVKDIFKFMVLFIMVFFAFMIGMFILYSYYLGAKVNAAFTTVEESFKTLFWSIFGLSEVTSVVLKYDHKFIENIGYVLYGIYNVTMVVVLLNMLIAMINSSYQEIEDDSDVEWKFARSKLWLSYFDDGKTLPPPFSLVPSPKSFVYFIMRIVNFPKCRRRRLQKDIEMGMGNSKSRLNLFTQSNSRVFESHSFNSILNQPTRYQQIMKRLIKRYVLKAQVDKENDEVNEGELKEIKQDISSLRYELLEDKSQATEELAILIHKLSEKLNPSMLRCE

[3] = Oral bioavailability in rat at 1.06 mg/kg; format: ADME, organism-based; conditions: in vivo
[4] = test system: Rattus norvegicus; assay: Dose normalized AUC in rat at 1.06 mg/kg, iv; format: ADME, organism-based; parameters: dose 1.06 mg/kg, route intravenous; conditions: in vivo
[5] = Volume of distribution at steady state in rat at 1.06 mg/kg, iv; format: ADME, organism-based; parameters: dose 1.06 mg/kg, route intravenous; conditions: in vivo, read-out: Vdss
[6] = Cmax in rat at 1.06 mg/kg, iv; format: ADME, organism-based; parameters: dose 1.06 mg/kg, route intravenous; conditions: in vivo
[7] = Clearance in rat at 1.06 mg/kg, iv; format: ADME, organism-based; parameters: dose 1.06 mg/kg, route intravenous; conditions: in vivo
[8] = Mean residence time in rat at 1.06 mg/kg, iv; format: ADME, organism-based; parameters: dose 1.06 mg/kg, route intravenous; conditions: in vivo
[9] = Cmax in rat at 0.92 mg/kg, iv; format: ADME, organism-based; parameters: dose 0.92 mg/kg, route intravenous; conditions: in vivo
[10] = test system: Rattus norvegicus; assay: Volume of distribution at steady state in rat at 0.92 mg/kg, iv; format: ADME, organism-based; parameters: dose 0.92 mg/kg, route intravenous; conditions: in vivo
[11] = test system: Rattus norvegicus; assay: Mean residence time in rat at 0.92 mg/kg, iv; format: ADME, organism-based; parameters: dose 0.92 mg/kg, route intravenous; conditions: in vivo
[12] = test system: Rattus norvegicus; assay: Dose normalized AUC in rat at 0.92 mg/kg, iv; format: ADME, organism-based; parameters: dose 0.92 mg/kg, route intravenous; conditions: in vivo
[13] = Oral bioavailability in rat at 0.92 mg/kg; format: ADME, organism-based; conditions: in vivo
[14] = test system: Rattus norvegicus; assay: Dose normalized AUC in rat at 0.82 mg/kg, iv; format: ADME, organism-based; parameters: dose 0.82 mg/kg, route intravenous; conditions: in vivo
[15] = molecular target: Sodium channel protein type 5 subunit alpha (Homo sapiens, UniProt Q14524); assay: Inhibition of NaV1.5 channel (unknown origin) by patch express-based electrophysiology assay
[16] = molecular target: Transient receptor potential cation channel subfamily V member 4 (Homo sapiens, UniProt Q9HBA0); assay: Inhibition of TRPV4 (unknown origin) by FLIPR assay
[17] = Clearance in rat at 0.82 mg/kg, iv; format: ADME, organism-based; parameters: dose 0.82 mg/kg, route intravenous; conditions: in vivo
[18] = molecular target: Transient receptor potential cation channel subfamily A member 1 (Homo sapiens, UniProt O75762); assay: Inhibition of TRPA1 (unknown origin) by FLIPR assay
[19] = Oral bioavailability in rat at 0.82 mg/kg; format: ADME, organism-based; conditions: in vivo
[20] = molecular target: Transient receptor potential cation channel subfamily V member 1 (Homo sapiens, UniProt Q8NER1); assay: Inhibition of TRPV1 (unknown origin) by FLIPR assay
[21] = molecular target: Voltage-dependent L-type calcium channel subunit alpha-1C (Homo sapiens, UniProt Q13936); assay: Inhibition of CaV1.2 channel (unknown origin) by patch express-based electrophysiology assay
[22] = Mean residence time in rat at 0.82 mg/kg, iv; format: ADME, organism-based; parameters: dose 0.82 mg/kg, route intravenous; conditions: in vivo
[23] = Cmax in rat at 0.82 mg/kg, iv; format: ADME, organism-based; parameters: dose 0.82 mg/kg, route intravenous; conditions: in vivo
[24] = Mean residence time in rat at 0.86 mg/kg, iv; format: ADME, organism-based; parameters: dose 0.86 mg/kg, route intravenous; conditions: in vivo
[25] = Clearance in rat at 0.86 mg/kg, iv; format: ADME, organism-based; parameters: dose 0.86 mg/kg, route intravenous; conditions: in vivo
[26] = Cmax in rat at 0.86 mg/kg, iv; format: ADME, organism-based; parameters: dose 0.86 mg/kg, route intravenous; conditions: in vivo
[27] = test system: Rattus norvegicus; assay: Dose normalized AUC in rat at 0.86 mg/kg, iv; format: ADME, organism-based; parameters: dose 0.86 mg/kg, route intravenous; conditions: in vivo
[28] = Oral bioavailability in rat at 0.86 mg/kg; format: ADME, organism-based; conditions: in vivo
[29] = test system: Rattus norvegicus; assay: Dose normalized AUC in rat at 1.05 mg/kg, iv; format: ADME, organism-based; parameters: dose 1.05 mg/kg, route intravenous; conditions: in vivo
[30] = Cmax in rat at 1.05 mg/kg, iv; format: ADME, organism-based; parameters: dose 1.05 mg/kg, route intravenous; conditions: in vivo
[31] = Clearance in rat at 1.05 mg/kg, iv; format: ADME, organism-based; parameters: dose 1.05 mg/kg, route intravenous; conditions: in vivo
[32] = Mean residence time in rat at 1.05 mg/kg, iv; format: ADME, organism-based; parameters: dose 1.05 mg/kg, route intravenous; conditions: in vivo
[33] = Oral bioavailability in rat at 1.05 mg/kg; format: ADME, organism-based; conditions: in vivo

Transient receptor potential cation channel subfamily V member 1, sequence (Q8NER1 whole entry): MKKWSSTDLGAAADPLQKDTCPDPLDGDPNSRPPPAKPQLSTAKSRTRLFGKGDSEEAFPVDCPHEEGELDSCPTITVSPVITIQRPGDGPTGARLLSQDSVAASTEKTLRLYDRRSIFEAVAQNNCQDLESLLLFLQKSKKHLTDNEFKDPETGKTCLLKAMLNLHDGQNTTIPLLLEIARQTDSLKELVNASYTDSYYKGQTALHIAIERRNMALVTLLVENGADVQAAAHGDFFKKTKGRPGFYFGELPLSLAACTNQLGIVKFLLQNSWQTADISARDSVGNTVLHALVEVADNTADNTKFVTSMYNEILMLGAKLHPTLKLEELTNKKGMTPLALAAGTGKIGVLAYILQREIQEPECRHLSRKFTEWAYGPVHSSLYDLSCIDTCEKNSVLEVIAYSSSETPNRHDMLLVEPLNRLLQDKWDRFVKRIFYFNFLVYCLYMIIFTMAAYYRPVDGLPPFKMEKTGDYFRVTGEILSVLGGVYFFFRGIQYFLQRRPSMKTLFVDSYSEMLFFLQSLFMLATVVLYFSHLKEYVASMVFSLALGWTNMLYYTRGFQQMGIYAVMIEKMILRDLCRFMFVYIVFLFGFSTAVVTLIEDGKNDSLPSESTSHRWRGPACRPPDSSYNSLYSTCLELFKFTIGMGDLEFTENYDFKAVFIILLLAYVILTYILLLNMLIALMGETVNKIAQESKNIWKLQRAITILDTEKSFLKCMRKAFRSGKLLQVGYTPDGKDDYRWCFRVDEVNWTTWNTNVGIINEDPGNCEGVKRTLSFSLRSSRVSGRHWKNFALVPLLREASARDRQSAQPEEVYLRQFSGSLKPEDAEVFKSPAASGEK
Transient receptor potential cation channel subfamily V member 4, sequence (Q9HBA0 whole entry): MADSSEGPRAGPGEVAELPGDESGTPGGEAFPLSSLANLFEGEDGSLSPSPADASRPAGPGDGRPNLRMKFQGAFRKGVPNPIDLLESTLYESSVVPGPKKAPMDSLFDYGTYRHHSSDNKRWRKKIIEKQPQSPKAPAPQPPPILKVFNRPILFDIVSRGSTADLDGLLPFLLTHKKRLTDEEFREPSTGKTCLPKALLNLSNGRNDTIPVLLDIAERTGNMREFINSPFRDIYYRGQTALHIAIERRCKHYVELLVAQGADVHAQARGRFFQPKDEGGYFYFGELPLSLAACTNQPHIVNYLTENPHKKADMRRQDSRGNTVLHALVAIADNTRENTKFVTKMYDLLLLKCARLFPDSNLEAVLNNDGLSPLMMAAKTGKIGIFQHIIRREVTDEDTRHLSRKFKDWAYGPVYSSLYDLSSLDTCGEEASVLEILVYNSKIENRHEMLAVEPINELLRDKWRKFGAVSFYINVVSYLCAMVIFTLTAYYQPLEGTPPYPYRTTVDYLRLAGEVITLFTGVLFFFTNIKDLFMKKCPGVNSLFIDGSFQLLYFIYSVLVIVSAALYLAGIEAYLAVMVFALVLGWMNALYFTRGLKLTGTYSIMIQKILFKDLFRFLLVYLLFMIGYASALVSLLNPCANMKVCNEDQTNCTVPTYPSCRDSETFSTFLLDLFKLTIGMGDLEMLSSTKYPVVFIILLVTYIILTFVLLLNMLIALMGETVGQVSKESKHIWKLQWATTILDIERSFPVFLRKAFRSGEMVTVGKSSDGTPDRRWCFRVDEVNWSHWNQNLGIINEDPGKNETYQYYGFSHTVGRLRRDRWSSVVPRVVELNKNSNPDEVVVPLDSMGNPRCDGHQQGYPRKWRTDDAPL
Sodium channel protein type 5 subunit alpha, sequence (Q14524 whole entry): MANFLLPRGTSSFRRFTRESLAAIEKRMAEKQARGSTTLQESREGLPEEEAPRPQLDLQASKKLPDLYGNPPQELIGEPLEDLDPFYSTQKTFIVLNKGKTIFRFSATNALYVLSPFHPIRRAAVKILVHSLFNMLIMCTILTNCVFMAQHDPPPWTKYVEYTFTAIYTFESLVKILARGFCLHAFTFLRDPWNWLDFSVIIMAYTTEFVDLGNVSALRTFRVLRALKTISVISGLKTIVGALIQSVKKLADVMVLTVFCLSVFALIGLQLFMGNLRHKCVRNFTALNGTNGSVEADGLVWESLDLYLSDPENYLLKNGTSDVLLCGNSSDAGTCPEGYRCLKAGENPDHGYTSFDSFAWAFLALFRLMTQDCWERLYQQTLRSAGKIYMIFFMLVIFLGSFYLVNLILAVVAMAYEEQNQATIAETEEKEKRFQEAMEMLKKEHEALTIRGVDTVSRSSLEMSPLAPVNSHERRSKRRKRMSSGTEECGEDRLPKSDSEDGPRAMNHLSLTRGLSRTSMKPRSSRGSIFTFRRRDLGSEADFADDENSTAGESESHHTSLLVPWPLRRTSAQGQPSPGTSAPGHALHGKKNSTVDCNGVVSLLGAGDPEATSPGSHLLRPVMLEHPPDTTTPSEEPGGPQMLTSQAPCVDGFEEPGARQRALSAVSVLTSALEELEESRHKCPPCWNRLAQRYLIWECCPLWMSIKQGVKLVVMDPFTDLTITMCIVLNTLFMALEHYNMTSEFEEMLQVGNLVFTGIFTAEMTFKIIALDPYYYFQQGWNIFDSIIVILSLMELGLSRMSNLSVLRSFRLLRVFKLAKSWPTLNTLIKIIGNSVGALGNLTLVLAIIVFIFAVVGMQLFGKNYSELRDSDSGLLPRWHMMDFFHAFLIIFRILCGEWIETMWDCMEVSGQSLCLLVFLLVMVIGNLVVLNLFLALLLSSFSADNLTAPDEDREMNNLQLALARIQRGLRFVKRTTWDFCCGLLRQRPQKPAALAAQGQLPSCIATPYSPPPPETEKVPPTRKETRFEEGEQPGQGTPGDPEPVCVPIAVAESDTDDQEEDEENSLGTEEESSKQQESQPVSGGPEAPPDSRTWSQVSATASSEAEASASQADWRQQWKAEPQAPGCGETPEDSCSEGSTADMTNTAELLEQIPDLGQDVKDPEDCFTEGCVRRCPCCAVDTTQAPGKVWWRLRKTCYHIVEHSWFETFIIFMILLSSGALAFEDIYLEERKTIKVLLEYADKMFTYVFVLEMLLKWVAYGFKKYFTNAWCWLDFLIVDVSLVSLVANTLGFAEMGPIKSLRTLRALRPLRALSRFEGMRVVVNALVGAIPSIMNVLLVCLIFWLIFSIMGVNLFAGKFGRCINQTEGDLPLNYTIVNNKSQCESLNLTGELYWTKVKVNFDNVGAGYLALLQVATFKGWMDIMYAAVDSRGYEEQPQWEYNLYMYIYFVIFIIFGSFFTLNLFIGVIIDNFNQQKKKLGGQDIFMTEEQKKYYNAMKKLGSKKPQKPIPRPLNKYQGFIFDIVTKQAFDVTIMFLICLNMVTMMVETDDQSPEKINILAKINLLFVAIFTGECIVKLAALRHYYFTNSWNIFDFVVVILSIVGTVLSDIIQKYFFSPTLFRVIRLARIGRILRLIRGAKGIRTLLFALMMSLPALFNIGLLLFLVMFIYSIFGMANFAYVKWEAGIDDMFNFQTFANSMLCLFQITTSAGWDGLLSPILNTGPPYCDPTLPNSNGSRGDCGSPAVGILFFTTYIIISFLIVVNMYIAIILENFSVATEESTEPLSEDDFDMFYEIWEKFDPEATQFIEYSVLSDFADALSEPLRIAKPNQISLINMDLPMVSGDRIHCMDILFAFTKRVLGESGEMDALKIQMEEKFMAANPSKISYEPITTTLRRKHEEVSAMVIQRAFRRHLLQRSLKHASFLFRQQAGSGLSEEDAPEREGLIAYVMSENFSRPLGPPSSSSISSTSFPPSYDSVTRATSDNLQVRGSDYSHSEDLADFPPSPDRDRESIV
Transient receptor potential cation channel subfamily A member 1, sequence (O75762 whole entry): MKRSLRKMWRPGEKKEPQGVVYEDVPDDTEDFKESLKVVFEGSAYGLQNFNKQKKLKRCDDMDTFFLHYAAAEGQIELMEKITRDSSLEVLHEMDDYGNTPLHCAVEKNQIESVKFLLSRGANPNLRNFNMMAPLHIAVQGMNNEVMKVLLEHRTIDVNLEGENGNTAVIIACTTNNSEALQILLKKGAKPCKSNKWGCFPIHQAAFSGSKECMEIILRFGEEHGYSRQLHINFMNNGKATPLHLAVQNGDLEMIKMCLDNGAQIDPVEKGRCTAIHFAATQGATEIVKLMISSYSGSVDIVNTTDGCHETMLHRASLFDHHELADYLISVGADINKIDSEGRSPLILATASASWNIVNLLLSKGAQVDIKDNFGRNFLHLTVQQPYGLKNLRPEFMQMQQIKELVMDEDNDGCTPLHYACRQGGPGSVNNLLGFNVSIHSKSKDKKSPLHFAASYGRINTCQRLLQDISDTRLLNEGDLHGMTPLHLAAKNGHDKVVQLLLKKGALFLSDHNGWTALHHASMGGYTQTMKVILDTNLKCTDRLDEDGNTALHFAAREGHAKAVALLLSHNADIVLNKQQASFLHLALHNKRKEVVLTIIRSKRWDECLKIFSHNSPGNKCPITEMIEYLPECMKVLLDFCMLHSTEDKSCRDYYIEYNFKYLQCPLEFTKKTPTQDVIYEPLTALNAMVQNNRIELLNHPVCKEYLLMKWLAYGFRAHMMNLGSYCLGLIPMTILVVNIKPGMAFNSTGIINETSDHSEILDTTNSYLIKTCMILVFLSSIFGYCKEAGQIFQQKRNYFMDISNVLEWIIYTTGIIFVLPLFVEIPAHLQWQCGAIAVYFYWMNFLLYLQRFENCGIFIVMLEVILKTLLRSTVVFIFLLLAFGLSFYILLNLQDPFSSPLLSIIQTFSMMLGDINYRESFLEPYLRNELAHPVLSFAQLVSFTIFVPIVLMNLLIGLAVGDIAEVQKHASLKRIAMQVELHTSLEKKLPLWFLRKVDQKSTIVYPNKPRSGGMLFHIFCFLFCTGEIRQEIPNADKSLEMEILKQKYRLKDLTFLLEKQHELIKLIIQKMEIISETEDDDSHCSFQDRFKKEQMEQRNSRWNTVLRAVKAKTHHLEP

SMILES: CC1CCN(C(=O)c2csc(Nc3ccc(Cl)cc3F)n2)CC1
- IC50 [1]: 0.63 µM
- IC50 [2]: 1.6 µM

SMILES: Cc1sc(Nc2cc3c(cc2F)OCO3)nc1C(=O)N1CCCC(C)C1C (stereo not given)
- IC50 [1]: 0.025 µM
- IC50 [2]: 0.16 µM

SMILES: Cc1sc(Nc2ccc3c(c2)OCO3)nc1C(=O)N1CCc2ncccc2C1C (stereo not given)
- bioavailability [3]: 65%
- AUC/dose [4]: 1.86 kg·h/L
- Vd [5]: 0.7 L/kg
- IC50 [1]: 1.26 µM
- Cmax [6]: 1800 ng/mL
- IC50 [2]: 10 µM
- clearance [7]: 9.3 mL/min/kg
- MRT [8]: 1.3 h

SMILES: Cc1sc(Nc2ccc(Cl)cc2F)nc1C(=O)N1CCc2ncccc2C1
- Cmax [9]: 510 ng/mL
- Vdss [10]: 0.7 L/kg
- MRT [11]: 1.6 h
- IC50 [1]: 6.3 µM
- IC50 [2]: 20 µM
- AUC/dose [12]: 0.85 kg·h/L
- bioavailability [13]: 100%

SMILES: Cc1sc(Nc2ccc(Cl)cc2F)nc1C(=O)N1CCC[C@H](C)[C@@H]1C
- AUC/dose [14]: 0.1 kg·L·h
- IC50 [15]: 3.3 µM
- IC50 [16]: 12.5 µM
- IC50 [1]: 0.016 µM
- clearance [17]: 150 mL/min/kg
- IC50 [18]: 25 µM
- bioavailability [19]: 64%
- IC50 [20]: 6.3 µM
- IC50 [2]: 0.1 µM
- IC50 [21]: 10 µM
- MRT [22]: 0.7 h
- Cmax [23]: 120 ng/mL

SMILES: Cc1ccc(Nc2nc(C(=O)N3CCC(C)CC3)cs2)cc1
- IC50 [1]: 0.4 µM
- IC50 [2]: 0.63 µM

SMILES: CC1CCCN(C(=O)c2nc(Nc3cc4c(cc3F)OCO4)sc2Cl)C1C (stereo not given)
- MRT [24]: 0.4 h
- clearance [25]: 46 mL/min/kg
- IC50 [1]: 0.004 µM
- IC50 [2]: 0.032 µM
- Cmax [26]: 490 ng/mL
- AUC/dose [27]: 0.3 kg·L·h
- bioavailability [28]: 7%

SMILES: CC1CCCN(C(=O)c2csc(Nc3ccc4c(c3)OCO4)n2)C1C (stereo not given)
- AUC/dose [29]: 0.2 kg·L·h
- Cmax [30]: 340 ng/mL
- IC50 [1]: 0.016 µM
- clearance [31]: 86 mL/min/kg
- IC50 [2]: 0.08 µM
- MRT [32]: 2.1 h
- bioavailability [33]: < 1%

SMILES: Cc1ccc(Nc2nc(C(=O)N3CCCC(c4ccccc4)C3)cs2)cc1 (stereo not given)
- IC50 [1]: > 25 µM
- IC50 [2]: > 25 µM

SMILES: Cc1sc(Nc2ccc(Cl)cc2F)nc1C(=O)N1CCC[C@@H](C)[C@H]1C
- IC50 [1]: 1.6 µM
- IC50 [2]: 1 µM

SMILES: COc1ccc(Nc2nc(C(=O)N3CCC(c4ccccc4)CC3)cs2)cc1
- IC50 [1]: 1.6 µM
- IC50 [2]: 2.5 µM

SMILES: O=C(c1csc(Nc2ccc3c(c2)OCO3)n1)N1CCc2ccccc2C1
- IC50 [1]: 0.16 µM
- IC50 [2]: 0.5 µM
